US20100016394A1, “BIOCIDAL COMPOSITIONS” (priority 2008, published 2010)
Marks after values point to notes of the source that are not given here.

Tests used:
mold = assay: Modified ASTM-G21 mold resistant test on fungicide-infused Kraft paper; assay type: cell-based; conditions: single active infused in Kraft paper; pass = mold resistant rating of 0 or 1; Trichoderma virens omitted from spore inocula
Procedure: In this example unbleached Kraft paper (brown wrapping paper (density 0.0091 g/cm2) is infused with DIMTS, carbendazim (BCM) and chlorothalonil (CTL) over a broad concentration range. In addition, paired combinations as well as all 3 actives combined are also infused into Kraft paper samples. Infusion of fungicide into paper is conducted by first dissolving the technical actives in a volatile solvent followed by addition of 1 mL of a working stock solution onto the surface of the paper to give the appropriate concentration of active(s) in mg/kg paper. The solvent completely saturates the paper. In order to prevent solvent from leaching through paper onto container, the paper is supported with a Viton O-ring. The solvent saturated paper samples are allowed to dry in a chemical fume hood precipitating the fungicides within the paper. Chemical analyses of fungicide actives in the paper samples confirms that this infusion technique produces >90% incorporation efficiency based on target concentrations. Standard mold resistant tests are performed on duplicate sub samples from each paper infusion sample. A modified ASTM-G21 is the standard mold resistant test used for performance evaluation. Synergy indices are calculated for all combinations of actives using a mold resistant rating of 0 or 1 as the passing criteria for performance. Synergy calculations are made according to the following standard equation:
SI=(Ca/CA)+(Cb/CB) 2 combination tests
SI=(Ca/CA)+(Cb/CB)+(Cc/CC) 3 combination tests
Ca is the lowest concentration of component A in combination with other active(s) required to pass test criteria;
CA is the lowest concentration of component A alone required to pass test criteria;
Cb is the lowest concentration of component B in combination with other active(s) required to pass test criteria;
CB is the lowest concentration of component B alone required to pass test criteria;
Cc is the lowest concentration of component C in combination with other active(s) required to pass test criteria; and
CC is the lowest concentration of component C alone required to pass test criteria. […]

[1] = cited from earlier work

Structure (SMILES)	PPM (active), lowest concentration of component alone required to pass test criteria (mold)	Water solubility [1]
COC(=O)Nc1nc2ccccc2[nH]1 [BCM, methyl 2-benzimidazolecarbamate]	1200 PPM	
N#Cc1c(Cl)c(Cl)c(Cl)c(C#N)c1Cl [CTL, 1,3-dicyano-tetrachlorobenzene]	> 1000* PPM	
Cc1ccc(S(=O)(=O)C(I)I)cc1 [DIMTS, diiodomethyltolylsulfone]	4000 PPM	water insoluble
